These results are taken from US20240316047A1, “INHIBITORS OF RNA HELICASE DHX9 AND USES THEREOF” (ACCENT THERAPEUTICS, INC., priority 2022, published 2024).

Structures are written as SMILES. pIC50: −log10 of the molar value.

The target of the assay is Human recombinant DHX9 protein (Homo sapiens (Human), UniProt Q08211). Kind of assay: DHX9 ATPase assay (ADP-Glo). The assay is classed as biochemical. The note with it: for pIC50: read-out: DHX9 Biochemical Inflection Point. (In general: In ADP-Glo the light output rises with the ADP produced.)
Chain of Human recombinant DHX9 protein (Q08211 whole entry): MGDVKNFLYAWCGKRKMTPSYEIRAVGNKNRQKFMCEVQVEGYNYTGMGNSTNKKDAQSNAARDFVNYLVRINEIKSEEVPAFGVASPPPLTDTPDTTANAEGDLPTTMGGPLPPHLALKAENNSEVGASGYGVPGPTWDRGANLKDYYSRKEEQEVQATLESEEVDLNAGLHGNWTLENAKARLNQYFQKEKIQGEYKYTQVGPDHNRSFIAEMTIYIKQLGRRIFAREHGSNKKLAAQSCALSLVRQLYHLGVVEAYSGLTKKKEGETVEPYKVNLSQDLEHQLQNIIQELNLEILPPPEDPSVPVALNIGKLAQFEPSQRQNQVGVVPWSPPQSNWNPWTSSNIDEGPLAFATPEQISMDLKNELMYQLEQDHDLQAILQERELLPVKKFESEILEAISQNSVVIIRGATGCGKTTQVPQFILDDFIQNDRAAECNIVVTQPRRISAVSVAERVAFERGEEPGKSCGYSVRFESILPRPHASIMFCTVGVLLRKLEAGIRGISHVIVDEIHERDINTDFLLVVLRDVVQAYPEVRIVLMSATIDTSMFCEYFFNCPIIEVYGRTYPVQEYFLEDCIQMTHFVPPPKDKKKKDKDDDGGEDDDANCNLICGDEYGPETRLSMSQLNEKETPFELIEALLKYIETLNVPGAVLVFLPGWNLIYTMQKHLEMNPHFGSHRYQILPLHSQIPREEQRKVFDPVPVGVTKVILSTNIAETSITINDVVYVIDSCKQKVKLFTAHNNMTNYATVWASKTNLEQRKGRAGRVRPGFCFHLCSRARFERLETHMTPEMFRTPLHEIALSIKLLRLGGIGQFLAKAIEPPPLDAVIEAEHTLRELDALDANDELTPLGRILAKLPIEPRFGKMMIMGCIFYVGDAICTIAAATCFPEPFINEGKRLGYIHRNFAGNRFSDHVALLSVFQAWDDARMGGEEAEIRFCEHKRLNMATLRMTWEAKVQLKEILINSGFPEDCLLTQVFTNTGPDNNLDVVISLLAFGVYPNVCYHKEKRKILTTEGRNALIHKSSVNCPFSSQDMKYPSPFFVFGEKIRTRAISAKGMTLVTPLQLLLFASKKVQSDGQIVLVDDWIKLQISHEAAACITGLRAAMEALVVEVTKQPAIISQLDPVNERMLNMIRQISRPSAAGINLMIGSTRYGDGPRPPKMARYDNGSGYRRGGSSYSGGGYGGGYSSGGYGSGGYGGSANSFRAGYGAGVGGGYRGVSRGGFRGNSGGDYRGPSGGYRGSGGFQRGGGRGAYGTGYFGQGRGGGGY

Regarding `CC(C)Oc1cc(N2CC(F)(F)C2)cnc1-c1cc(C(=O)Nc2cc(Cl)cc(NS(C)(=O)=O)c2)cn1C` [Example 513], the “DHX9 Biochemical Max Inhibition” value amounted to 56.4 and the pIC50 was 7.11.
On to `CS(=O)(=O)Nc1cc(Br)cc(NC(=O)c2cc(-c3ccccc3OCc3ccccc3)cs2)c1` [Example 30], for which the “DHX9 Biochemical Max Inhibition” value came out at 40.5% and the pIC50 was 6.10.
As for `Cn1cc(C(=O)Nc2cc(Cl)cc(NS(C)(=O)=O)c2)cc1-c1cccc(N2CC(F)(F)C2)n1` [Example 551], the “DHX9 Biochemical Max Inhibition” value came out at 87.4 and the pIC50 is 6.98.
Consider `COc1cnc(-c2cc(C(=O)Nc3cc(Cl)cc(NS(C)(=O)=O)c3)sc2C)c(C)c1` [Example 361], for which the “DHX9 Biochemical Max Inhibition” value amounted to 88.8%.
Take `Cc1sc(C(=O)Nc2cc(Cl)cc(NS(C)(=O)=O)c2)cc1-c1c(F)cc(F)c[n+]1[O-]` [Example 736]: the “DHX9 Biochemical Max Inhibition” value turned out to be 70.3 and the pIC50 is 7.26.
Consider `COc1cnc(-c2cc(C(=O)Nc3cc(Cl)cc(NS(C)(=O)=O)c3)cn2CC(F)(F)F)nc1` [Example 563], for which the “DHX9 Biochemical Max Inhibition” value was found to be 66.9 and the pIC50 is 7.15.
The like results for `COc1ccc(F)c(-c2cc(C(=O)Nc3cc(Cl)cc(NS(C)(=O)=O)c3)cn2C)n1` [Example 703] were, in that order, 53.6 and 7.35.
As to `Cc1cc(C(=O)Nc2cc(Cl)cc(NS(C)(=O)=O)c2)cn1-c1ncc(N2CC(F)(F)C2)cc1F` [Example 420], the “DHX9 Biochemical Max Inhibition” value amounted to 95 and the pIC50 is 7.75.
With `CS(=O)(=O)Nc1cc(Cl)cc(NC(=O)c2cc(-c3ccccc3)cs2)c1` [Example 75], the “DHX9 Biochemical Max Inhibition” value is 55.5%.
`Cc1cc(C(=O)Nc2cc(Cl)cc(NS(C)(=O)=O)c2)cn1-c1ncc(N2CC(C(F)(F)F)C2)cn1` [Example 694]: the “DHX9 Biochemical Max Inhibition” value was found to be 73 and the pIC50 is 7.53.
The like results for `CS(=O)(=O)Nc1cc(Cl)cc(NC(=O)c2cc3cc(F)ccc3s2)c1` [Example 295] were, in that order, 63.8% and 6.51.
Take `Cn1cc(C(=O)Nc2cc(Cl)cc(NS(C)(=O)=O)c2)cc1-c1ccc(N2CCC2)cn1` [Example 538]: the “DHX9 Biochemical Max Inhibition” value stood at 66.9 and the pIC50 is 8.04.
With `Cc1sc(C(=O)Nc2cc(Cl)cc(NS(C)(=O)=O)c2)cc1-c1ncc(N2CCC(F)(F)C2)cn1` [Example 479], the “DHX9 Biochemical Max Inhibition” value is 69.6 and the pIC50 was 7.76.
As to `CS(=O)(=O)Nc1cc(Br)cc(NC(=O)c2ccc3c(c2)[nH]c(=O)n3Cc2ccccc2)c1` [Example 99, 1-benzyl-N-(3-bromo-5-(methylsulfonamido)phenyl)-2-oxo-2,3-dihydro-1H-benzo[d]imidazole-5-carboxamide], the “DHX9 Biochemical Max Inhibition” value is on record as 50.9% and the pIC50 is 6.53.
Regarding `CS(=O)(=O)Nc1cc(Cl)cc(NC(=O)c2cnn(C3CC4CCC(C3)O4)c2)c1` (stereo not shown) [Example 250], the “DHX9 Biochemical Max Inhibition” value was found to be 64.6% and the pIC50 was 6.73.
`CN(C)S(=O)(=O)c1ccc(-n2cc(C(=O)Nc3cc(Cl)cc(NS(C)(=O)=O)c3)cn2)nc1` [Example 200]: the “DHX9 Biochemical Max Inhibition” value stood at 57.7% and the pIC50 is 7.07.
With `CS(=O)(=O)Nc1cc(Cl)cc(NC(=O)c2cnn(-c3ccccc3OCc3cccc(F)c3)c2)c1` [Example 210], the “DHX9 Biochemical Max Inhibition” value was 71.3% and the pIC50 was 8.44.
With `Cc1cccc(O)c1-c1csc(C(=O)Nc2cc(Br)cc(NS(C)(=O)=O)c2)c1` [Example 19], the “DHX9 Biochemical Max Inhibition” value was 53.5% and the pIC50 was 6.94.
The like results for `Cn1cc(C(=O)Nc2cc(Cl)cc(NS(C)(=O)=O)c2)cc1-c1ccc(N2CCN(C(=O)C3CCC3)CC2)cn1` [Example 593] were, in that order, 99.9 and 7.52.
The like results for `Cc1sc(C(=O)Nc2cc(Br)cc(NS(C)(=O)=O)c2)cc1-c1ccccc1O` [Example 20] were, in that order, 62.5% and 7.24.
With `Cc1cccnc1-n1cc(C(=O)Nc2cc(Br)cc(NS(C)(=O)=O)c2)cc1C` [Example 45], the “DHX9 Biochemical Max Inhibition” value is 67.4% and the pIC50 is 7.79.
The like results for `CS(=O)(=O)Nc1cc(Cl)cc(NC(=O)c2cnn([C@H]3CCC[C@H](O)C3)c2)c1` (single isomer, unassigned) [Example 152a] were, in that order, 63.2% and 6.86.
As for `CS(=O)(=O)Nc1cc(Cl)cc(NC(=O)c2cc(N3CCNCC3)cs2)c1` [Example 244], the “DHX9 Biochemical Max Inhibition” value worked out at 71.9% and the pIC50 is 7.13.
The like results for `CS(=O)(=O)Nc1cc(I)cc(NC(=O)c2cc(-c3ccccc3)cs2)c1` [Example 16] were, in that order, 46.3% and 6.60.
The like results for `Cc1sc(C(=O)Nc2cc(Cl)cc(NS(C)(=O)=O)c2)cc1N1CCCC1=O` [Example 434] were, in that order, 67.1 and 7.29.
Turning to `CS(=O)(=O)Nc1cc(F)cc(NC(=O)c2cc(Br)[nH]n2)c1` [Example 4], the “DHX9 Biochemical Max Inhibition” value is given as 64.1% and the pIC50 is 5.32.
With `CS(=O)(=O)Nc1cc(Cl)cc(NC(=O)c2cnn(C3CCCC3OCc3ccccc3)c2)c1` (stereo not shown) [Example 424], the “DHX9 Biochemical Max Inhibition” value was 81.7 and the pIC50 was 8.29.
The like results for `CCOc1cnc(-c2cc(C(=O)Nc3cc(Cl)cc(NS(C)(=O)=O)c3)sc2C)nc1` [Example 335] were, in that order, 79% and 7.97.
Regarding `Cn1cc(C(=O)Nc2cc(Cl)cc(NS(C)(=O)=O)c2)cc1-c1ncccc1Oc1cccnc1` [Example 655], the “DHX9 Biochemical Max Inhibition” value is on record as 67.8 and the pIC50 was 7.94.
The like results for `Cn1cc(C(=O)Nc2cc(Cl)cc(NS(C)(=O)=O)c2)cc1-c1ncc(N2CC3(C2)CC(F)(F)C3)cc1F` [Example 702] were, in that order, 70.8 and 7.02.
The like results for `Cc1cc(C(=O)Nc2cc(Cl)cc(NS(C)(=O)=O)c2)cn1-c1ncc(Cl)cn1` [Example 578] were, in that order, 70.1 and 6.83.
The like results for `Cc1ccc(C(=O)Nc2cc(Br)cc(NS(C)(=O)=O)c2)cc1-n1cccn1` [Example 10] were, in that order, 61% and 6.88.
Regarding `CCS(=O)(=O)Nc1cc(Cl)cc(NC(=O)c2cc(-c3ncc(F)cc3Cl)c(C)s2)c1` [Example 355], the “DHX9 Biochemical Max Inhibition” value is given as 69.9% and the pIC50 was 7.47.
The like results for `CS(=O)(=O)Nc1cc(Cl)cc(NC(=O)c2cnn(-c3ccc(S(C)(=O)=O)cn3)c2)c1` [Example 198] were, in that order, 60.7% and 7.15.
Consider `COCCOc1ccc(-n2cc(C(=O)Nc3cc(Cl)cc(NS(C)(=O)=O)c3)cc2C)nc1` [Example 442], for which the “DHX9 Biochemical Max Inhibition” value came out at 72.7 and the pIC50 was 8.03.
Regarding `CC(Oc1cccnc1-n1cc(C(=O)Nc2cc(Cl)cc(NS(C)(=O)=O)c2)cn1)c1ccccc1` (stereo not shown) [Example 62], the “DHX9 Biochemical Max Inhibition” value came out at 58.4% and the pIC50 is 6.68.
The like results for `Cn1cc(C(=O)Nc2cc(Cl)cc(NS(=O)(=O)CCO)c2)cc1-c1ncc(F)cc1F` [Example 581] were, in that order, 50.5 and 7.00.
For the molecule `CN1CCN(c2csc(C(=O)Nc3cc(Cl)cc(NS(C)(=O)=O)c3)c2)C1=O` [Example 431], the “DHX9 Biochemical Max Inhibition” value came to 73.5 and the pIC50 was 8.07.
With `CS(=O)(=O)Nc1cc(Cl)cc(NC(=O)c2cc(-c3ncccc3OCc3ccccc3)c(CO)s2)c1` [Example 216], the “DHX9 Biochemical Max Inhibition” value is recorded as 78% and the pIC50 is 8.36.
The like results for `CN(C)C(=O)c1cccnc1-c1csc(C(=O)Nc2cc(Cl)cc(NS(C)(=O)=O)c2)c1` [Example 222] were, in that order, 78.7% and 7.75.
The like results for `CCc1cncc(COc2cccnc2-c2cc(C(=O)Nc3cc(Cl)cc(NS(C)(=O)=O)c3)cn2C)c1` [Example 730] were, in that order, 72.6 and 7.93.
The like results for `Cc1cc(C(=O)Nc2cc(Cl)cc(NS(C)(=O)=O)c2)cn1-c1ncc(N2CCC(F)(F)C2)cn1` [Example 409] were, in that order, 65.7 and 7.53.
On to `COc1ccc2cc(C(=O)Nc3cc(Cl)cc(NS(C)(=O)=O)c3)sc2c1` [Example 327], for which the “DHX9 Biochemical Max Inhibition” value turned out to be 63.3% and the pIC50 was 6.58.
Consider `CN(C)C(=O)c1cccc(OCc2cccc(F)c2)c1-n1cc(C(=O)Nc2cc(Cl)cc(NS(C)(=O)=O)c2)cn1` [Example 717], for which the “DHX9 Biochemical Max Inhibition” value is on record as 68.1 and the pIC50 was 6.70.
The like results for `CS(=O)(=O)Nc1cc(Br)cc(NC(=O)c2cnn(-c3ccccc3C=O)c2)c1` [Example 58] were, in that order, 44.4% and 7.07.
In the case of `Cc1sc(C(=O)Nc2cc(Cl)cc(NS(C)(=O)=O)c2)cc1-c1ccc(F)cn1` [Example 35], the “DHX9 Biochemical Max Inhibition” value came to 75.7% and the pIC50 is 8.41.
The like results for `COc1cc2cc(C(=O)Nc3cc(Cl)cc(NS(C)(=O)=O)c3)sc2cc1OC` [Example 291] were, in that order, 59.7% and 6.84.
The like results for `CS(=O)(=O)Nc1cc(Cl)cc(NC(=O)c2cc(C3CC3)n(-c3ncc(F)cn3)c2)c1` [Example 451] were, in that order, 73.2 and 7.27.
The like results for `Cn1cc(C(=O)Nc2cc(Cl)cc(NS(C)(=O)=O)c2)cc1-c1ccc(C2CCOCC2)cn1` [Example 704] were, in that order, 78.1 and 7.90.
Regarding `CCS(=O)(=O)Nc1cc(F)cc(NC(=O)c2cc(-c3ccccc3)cs2)c1` [Example 74], the “DHX9 Biochemical Max Inhibition” value amounted to 57.7% and the pIC50 was 6.59.
Consider `CS(=O)(=O)Nc1cc(F)cc(NC(=O)c2c[nH]c(Br)c2)c1` [Example 2], for which the “DHX9 Biochemical Max Inhibition” value is reported as 64.8% and the pIC50 is 6.76.
